The source made the active and inactive calls. The calls are words filed in the database; no cut-off is given here.
Biological target: Annexin A2/S100-A10 (Homo sapiens) (UniProt P07355+P60903)
Experiment: Inhibition of Annexin A2/Protein S100-A10 protein interaction in human MDA-MB-231 cells by Western blotting based immunoprecipitation assay
Format: cell-based

Chain of Annexin A2/S100-A10 (Homo sapiens) (P07355 2-339 limits assumed): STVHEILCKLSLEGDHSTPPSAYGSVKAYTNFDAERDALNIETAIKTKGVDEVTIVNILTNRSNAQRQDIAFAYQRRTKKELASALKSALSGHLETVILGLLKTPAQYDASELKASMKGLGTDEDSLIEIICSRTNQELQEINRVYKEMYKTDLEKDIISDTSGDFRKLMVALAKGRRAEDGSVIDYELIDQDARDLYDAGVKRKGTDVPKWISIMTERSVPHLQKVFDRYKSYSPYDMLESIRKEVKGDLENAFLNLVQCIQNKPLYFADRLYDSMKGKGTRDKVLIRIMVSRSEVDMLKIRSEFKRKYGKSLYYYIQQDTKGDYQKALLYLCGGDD
Chain of Annexin A2/S100-A10 (Homo sapiens) (P60903 whole entry partner): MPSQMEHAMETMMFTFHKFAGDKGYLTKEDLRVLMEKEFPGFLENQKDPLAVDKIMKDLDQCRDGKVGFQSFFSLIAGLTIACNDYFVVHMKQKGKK

inhibition	Compound
Active	Cc1cc(C)nc(SCc2nnc(SCC(=O)Nc3ccc(C(C)C)cc3)n2Cc2ccco2)n1
Active	Ac-MSTVHEILCKLSLE-OH

— ChEMBL document CHEMBL3352440, “Design, synthesis and SAR exploration of tri-substituted 1,2,4-triazoles as inhibitors of the annexin A2-S100A10 protein interaction” (Bioorg Med Chem, 2014)
